According to the NIST ThermoML archive (doi:10.1016/j.tca.2017.02.015):
± gives the expanded uncertainty stated by the source.

Legend:
[1] = molar heat capacity at constant pressure; xn = mol fraction of the nth substance listed; settings: Liquid, Flow calorimetry
[2] = molar heat capacity at constant pressure; settings: Liquid, Flow calorimetry

CCCCCCCCCC(=O)OC [methyl decanoate] + CCCCCCCCCCCC(=O)OC
[1], x2 = 0
Settings | molar heat capacity at constant pressure [J/K/mol]
313.71 K, 100 kPa | 383.9 ± 3.9
313.82 K, 4070 kPa | 382.1 ± 3.9
313.83 K, 8030 kPa | 380.5 ± 3.8
313.99 K, 12010 kPa | 378.5 ± 3.8
314.01 K, 16140 kPa | 376.6 ± 3.8
324.79 K, 100 kPa | 387.6 ± 3.9
324.79 K, 4070 kPa | 386 ± 3.9
325.01 K, 8030 kPa | 384.4 ± 3.9
325.06 K, 12010 kPa | 382.5 ± 3.9
325.2 K, 16140 kPa | 379.3 ± 3.8
334.12 K, 100 kPa | 393.2 ± 4
334.33 K, 8030 kPa | 388.3 ± 3.9
334.53 K, 4070 kPa | 390.3 ± 3.9
334.6 K, 12010 kPa | 386.2 ± 3.9
334.84 K, 16140 kPa | 384.2 ± 3.9

CCCCCCCCCC(=O)OC [methyl decanoate]
[2]
Settings | molar heat capacity at constant pressure [J/K/mol]
313.71 K, 100 kPa | 383.9 ± 3.9
313.82 K, 4070 kPa | 382.1 ± 3.9
313.83 K, 8030 kPa | 380.5 ± 3.8
313.99 K, 12010 kPa | 378.5 ± 3.8
314.01 K, 16140 kPa | 376.6 ± 3.8
324.79 K, 100 kPa | 387.6 ± 3.9
324.79 K, 4070 kPa | 386 ± 3.9
325.01 K, 8030 kPa | 384.4 ± 3.9
325.06 K, 12010 kPa | 382.5 ± 3.9
325.2 K, 16140 kPa | 379.3 ± 3.8
334.12 K, 100 kPa | 393.2 ± 4
334.33 K, 8030 kPa | 388.3 ± 3.9
334.53 K, 4070 kPa | 390.3 ± 3.9
334.6 K, 12010 kPa | 386.2 ± 3.9
334.84 K, 16140 kPa | 384.2 ± 3.9

CCCCCCCCCCCC(=O)OC [methyl dodecanoate]
[2]
Settings | molar heat capacity at constant pressure [J/K/mol]
313.97 K, 100 kPa | 442.6 ± 4.5
313.99 K, 4040 kPa | 441.6 ± 4.5
314.06 K, 8070 kPa | 439.5 ± 4.4
314.09 K, 12160 kPa | 438.3 ± 4.4
314.14 K, 16180 kPa | 436.9 ± 4.4
323.84 K, 12090 kPa | 444.8 ± 4.5
323.88 K, 100 kPa | 449.5 ± 4.5
323.93 K, 4070 kPa | 447.2 ± 4.5
323.94 K, 16080 kPa | 443.3 ± 4.5
324.01 K, 8060 kPa | 445.8 ± 4.5
333.88 K, 100 kPa | 456.4 ± 4.6
333.96 K, 4050 kPa | 453.6 ± 4.6
334 K, 8050 kPa | 452.1 ± 4.6
334.05 K, 12060 kPa | 450.5 ± 4.6
334.11 K, 16170 kPa | 448 ± 4.5

CCCCCCCCCCCC(=O)OC [methyl dodecanoate] + CCCCCCCCCC(=O)OC
[1]
Settings | molar heat capacity at constant pressure [J/K/mol]
313.71 K, 100 kPa, x1 = 0.5001 | 414.9 ± 4.2
313.82 K, 4060 kPa, x1 = 0.5001 | 413.3 ± 4.2
313.83 K, 8100 kPa, x1 = 0.5001 | 412.3 ± 4.2
313.97 K, 100 kPa, x1 = 1 | 442.6 ± 4.5
313.99 K, 4040 kPa, x1 = 1 | 441.6 ± 4.5
313.99 K, 12140 kPa, x1 = 0.5001 | 410.1 ± 4.1
314.01 K, 100 kPa, x1 = 0.6999 | 426.4 ± 4.3
314.01 K, 16150 kPa, x1 = 0.5001 | 408.9 ± 4.1
314.06 K, 8070 kPa, x1 = 1 | 439.5 ± 4.4
314.08 K, 4080 kPa, x1 = 0.6999 | 425.1 ± 4.3
314.09 K, 12160 kPa, x1 = 1 | 438.3 ± 4.4
314.14 K, 16180 kPa, x1 = 1 | 436.9 ± 4.4
314.17 K, 12080 kPa, x1 = 0.6999 | 421.2 ± 4.3
314.18 K, 8140 kPa, x1 = 0.6999 | 422.7 ± 4.3
314.21 K, 16150 kPa, x1 = 0.6999 | 419.4 ± 4.2
314.37 K, 100 kPa, x1 = 0.3001 | 403.7 ± 4.1
314.53 K, 4090 kPa, x1 = 0.3001 | 402.2 ± 4.1
314.71 K, 8010 kPa, x1 = 0.3001 | 400.6 ± 4
314.95 K, 12020 kPa, x1 = 0.3001 | 397.7 ± 4
315.06 K, 16080 kPa, x1 = 0.3001 | 395.6 ± 4
323.53 K, 100 kPa, x1 = 0.3001 | 412 ± 4.2
323.58 K, 4100 kPa, x1 = 0.3001 | 409.5 ± 4.1
323.69 K, 8070 kPa, x1 = 0.3001 | 406.9 ± 4.1
323.84 K, 12080 kPa, x1 = 0.3001 | 403.9 ± 4.1
323.84 K, 12090 kPa, x1 = 1 | 444.8 ± 4.5
323.88 K, 100 kPa, x1 = 1 | 449.5 ± 4.5
323.93 K, 4070 kPa, x1 = 1 | 447.2 ± 4.5
323.94 K, 16080 kPa, x1 = 1 | 443.3 ± 4.5
324.01 K, 8060 kPa, x1 = 1 | 445.8 ± 4.5
324.05 K, 100 kPa, x1 = 0.6999 | 435.5 ± 4.4
324.08 K, 4120 kPa, x1 = 0.6999 | 433.4 ± 4.4
324.13 K, 8050 kPa, x1 = 0.6999 | 431.3 ± 4.4
324.19 K, 12080 kPa, x1 = 0.6999 | 428.2 ± 4.3
324.24 K, 16120 kPa, x1 = 0.6999 | 426.4 ± 4.3
324.39 K, 16190 kPa, x1 = 0.3001 | 400.5 ± 4
324.79 K, 100 kPa, x1 = 0.5001 | 424.4 ± 4.3
324.79 K, 4150 kPa, x1 = 0.5001 | 421.6 ± 4.3
325.01 K, 8140 kPa, x1 = 0.5001 | 418.7 ± 4.2
325.06 K, 12110 kPa, x1 = 0.5001 | 416.1 ± 4.2
325.2 K, 16230 kPa, x1 = 0.5001 | 413.7 ± 4.2
333.55 K, 100 kPa, x1 = 0.3001 | 418.3 ± 4.2
333.71 K, 100 kPa, x1 = 0.6999 | 442.8 ± 4.5
333.76 K, 4130 kPa, x1 = 0.3001 | 415.8 ± 4.2
333.79 K, 8110 kPa, x1 = 0.3001 | 413.5 ± 4.2
333.88 K, 100 kPa, x1 = 1 | 456.4 ± 4.6
333.96 K, 4050 kPa, x1 = 1 | 453.6 ± 4.6
333.97 K, 12160 kPa, x1 = 0.6999 | 434.7 ± 4.4
333.98 K, 4150 kPa, x1 = 0.6999 | 440.9 ± 4.5
334 K, 8050 kPa, x1 = 1 | 452.1 ± 4.6
334.03 K, 12080 kPa, x1 = 0.3001 | 411.7 ± 4.2
334.04 K, 8040 kPa, x1 = 0.6999 | 439 ± 4.4
334.04 K, 16170 kPa, x1 = 0.6999 | 431.9 ± 4.4
334.05 K, 12060 kPa, x1 = 1 | 450.5 ± 4.6
334.11 K, 16170 kPa, x1 = 1 | 448 ± 4.5
334.12 K, 100 kPa, x1 = 0.5001 | 431.7 ± 4.4
334.21 K, 16110 kPa, x1 = 0.3001 | 408.4 ± 4.1
334.33 K, 8140 kPa, x1 = 0.5001 | 425.5 ± 4.3
334.53 K, 4120 kPa, x1 = 0.5001 | 428.8 ± 4.3
334.6 K, 12200 kPa, x1 = 0.5001 | 423.1 ± 4.3
334.84 K, 16030 kPa, x1 = 0.5001 | 420.7 ± 4.3
